Like-named read-outs stand apart in the source and are kept apart here.

The results in this text go back to publication PMC11278233, “The Composition of Triterpene Glycosides in the Sea Cucumber Psolus peronii: Anticancer Activity of the Glycosides against Three Human Breast Cancer Cell Lines and Quantitative Structure–Activity Relationships (QSAR)” (Marine Drugs, 2024).

Series [1] has as its system human erythrocytes. As to the kind of experiment: Hemolytic activity. In kind it is cell-based. As to conditions: for IC50: Erythrocyte, 1 h at 37 °C, lysis of 50% of erythrocytes. The procedure:
A total of 450 g of human blood (B(III) Rh+) was used to obtain erythrocytes by centrifuging it three times for 5 min with phosphate-buffered saline (PBS) (pH 7.4) at 4 °C on the centrifuge LABOFUGE 400R (Heraeus, Hanau, Germany). Ice-cold PBS (pH 7.4) was used for resuspension of the erythrocyte residue to a final optical density of 1.5 at 700 nm, which was kept on ice. Then, 20 µL of the tested compound solutions was added to 180 µL of the erythrocyte suspension in V-bottom 96-well plates and exposed for 1 h at 37 °C. The layers were separated by centrifugation at 900 g for 10 min on the laboratory centrifuge LMC-3000 (Biosan, Riga, Latvia). A total of 100 µL of the supernatant was carefully decanted and transferred into a new flat plate. The values of erythrocyte lysis were measured on a microplate photometer Multiskan FC (Thermo Fisher Scientific, Waltham, MA, USA) at λ = 570 nm as the hemoglobin concentration in the supernatant. […] All the experiments were carried out in triple repetitions; p ≤ 0.05.

The nature of series [2]: in vitro. In kind it is cell-based, human. The conditions noted are these: human.
Series [3] deals with human breast cancer cell line MCF-7. As to the kind of experiment: cells. In kind it is cell-based. As to conditions: for Selectivity Index MCF-7: ratio of IC50 for healthy (MCF-10A) and cancer cells.
In series [4] the test system is human breast cancer cell line T-47D. Kind of series: cells. The conditions noted are these: for Selectivity Index T-47D: ratio of IC50 for healthy (MCF-10A) and cancer cells. In kind it is cell-based.
For series [5], the system named is triple-negative human breast cancer cell line MDA-MB-231. Kind of series: cells. In kind it is cell-based. As to conditions: for Selectivity Index MDA-MB-231: ratio of IC50 for healthy (MCF-10A) and cancer cells.
Series [6] deals with non-transformed epithelial cells of the mammary gland MCF-10A. Kind of series: in vitro. In kind it is cell-based, human.
The subject of series [7] is MCF-7 cells. Kind of series: Colonogenic (colony formation) assay, MCF-7. In kind it is cell-based. The conditions noted are these: Homo sapiens, MCF7, 336 h, 14 days. On the procedure: (§1) The cancer cells (MDA-MB-231, MCF-7 and T-47D lines) were cultured on 6-well plates at a density of 1 × 10^3 per well in control media (MEM media, 10% FBS, 10,000 U/mL of penicillin and […] of streptomycin) or in media supplemented with different concentrations of the glycosides. The cells were incubated for 14 days at 37 °C in a 5% CO2 humidified incubator. Then, the colonies were fixed with methanol (25 min), stained with a 0.5% solution of crystal violet (25 min), washed with H2O and dried in air. Counting of the grown colonies was carried out using a BIO-PRINT-Cx4 Edge-Fixed Pad-Container (Vilber, Collegien, France) device and using the software Bio-Vision SOFTWARE User and service manual-v18.01 (Vilber, Collegien, France). The results are presented as % of colony inhibition in relation to the control.

The subject of series [8] is MDA-MB-231 cells. As to the kind of experiment: Colonogenic (colony formation) assay, MDA-MB-231. In kind it is cell-based. The conditions noted are these: Homo sapiens, 336 h, 14 days, read-out: inhibition of the growth of colonies. The procedure:
as §1

In series [9] the test system is MCF-7 cells. As to the kind of experiment: Wound healing (scratch) assay, MCF-7. In kind it is cell-based, human. The conditions noted are these: 1 and 2 μM, within 48 h, control migrated by 84.60 ± 2.12%. The procedure:
(§2) To analyze the influence of the tested compounds on tumor cell migration, MCF-7 and MDA-MB-231 (5 × 10^5) cells attached to the plate’s plastic bottom were separated using a silicone insert from special migration plates (Culture-insert 2Well 24, ibiTreat). When the insert was removed, a gap of […] (according to the manufacturer’s data) between the cells was left. After 24 h, the cells were washed twice with PBS to remove cell debris and floating cells, treated with 1 and 2 μM of psolusosides A (2) and L (6) and placed in the real-time live cell imaging system Juli Stage (NanoEntek, Seoul, South Korea). Cells treated with the culture medium only were used as the control. The cell migration was analyzed in real time (15 min for each cycle). For the MDA-MB-231 cells, observations were carried out for 12 h (until complete healing of the wound area in the control); for MCF-7 cells, this time was 48 h. The results were processed using the program Juli^TM Stat (NanoEntek, South Korea).

The test system of series [10] is MDA-MB-231 cells. As to the kind of experiment: Wound healing (scratch) assay, MDA-MB-231. In kind it is cell-based, human. The conditions noted are these: 2 μM, within 12 h, control 99.83 ± 0.08%. On the procedure:
as §2

[11] abbreviates: Homo sapiens, MCF7, 24 h, read-out: Cytotoxicity, IC50 µM MCF-7.
Setting [12] is: Homo sapiens, T47D, 24 h, read-out: Cytotoxicity, IC50 µM T-47D.
The mark [13] stands for this setting: Homo sapiens, MDA-MB-231, 24 h, read-out: Cytotoxicity, IC50 µM MDA-MD-231.

As to `C=C(C)CCC[C@](C)(OC(C)=O)[C@H]1[C@@H]2C[C@@]3(C)C4=CC[C@H]5C(C)(C)[C@@H](O[C@@H]6OC[C@@H](O[C@@H]7O[C@H](CO)[C@@H](O)[C@H](O)[C@H]7OS(=O)(=O)[O-])[C@H](O)[C@H]6O[C@@H]6O[C@H](CO)[C@@H](O[C@@H]7O[C@H](COS(=O)(=O)[O-])[C@@H](O)[C@H](O)[C@H]7O)[C@H](O)[C@H]6O)CC[C@]5(C)C4CC[C@]13C(=O)O2.[Na+].[Na+]` (stereo partly drawn) [psolusoside B (3), psolusoside B], the “hemolytic activity (result in words)” value in series [1] is “almost not active”. For the same molecule, the IC50 was 74.6 ± 1.21 µM in series [1], more than 50 µM in series [3] (setting [11]), more than 50 µM in [4] (setting [12]) and more than 50 µM in series [5] (setting [13]). Besides, the IC50 at 24 h in series [2] was more than 50 µM.

Regarding `C=C(C)CCC[C@]1(C)OC(=O)[C@]23CC=C4[C@@H](CC[C@H]5C(C)(C)[C@@H](O[C@@H]6OC[C@@H](O)[C@H](O)[C@H]6O[C@@H]6O[C@H](C)[C@@H](O[C@@H]7O[C@H](COS(=O)(=O)[O-])[C@@H](O)[C@H](O[C@@H]8O[C@H](COS(=O)(=O)[O-])[C@@H](O)[C@H](OC)[C@H]8O)[C@H]7O)[C@H](O)[C@H]6O)CC[C@]45C)[C@]2(C)CC(=O)[C@@H]31.[Na+].[Na+]` [psolusoside A (2), psolusoside A], the IC50 was determined as 1.05 ± 0.12 µM in series [1]; 11.2 ± 0.4 µM in [3] (setting [11]); 9.52 ± 0.13 µM in series [4] (setting [12]); 6.09 ± 0.87 µM in series [5] (setting [13]); 3.87 ± 0.38 µM in series [5] (Homo sapiens, MDA-MB-231, MTT assay, 48 h incubation, read-out: IC50 against MDA-MB-231 cells (antiproliferative effect)); 3.27 ± 0.27 µM in series [5] (Homo sapiens, MDA-MB-231, MTT assay, 72 h incubation, read-out: IC50 against MDA-MB-231 cells (antiproliferative effect)). The half-inhibitory concentration (IC50) at 24 h in [2] is more than 50 µM. Besides, the “cytotoxicity to non-transformed MCF-10A cells (result in words)” value in [6] is reported as “not cytotoxic”. For the same molecule, the “Selectivity Index MCF-7” value is 4.47 in series [3] (24 h of exposition), 1.84 in series [3] (48 h of exposition) and 0.59 in [3] (72 h of exposition). The “Selectivity Index T-47D” value in series [4] (24 h of exposition) was 5.25; in [4] (48 h of exposition) it was 0.86; in series [4] (72 h of exposition) it was 0.76. The “Selectivity Index MDA-MB-231” value amounted to 8.21 in series [5] (24 h of exposition), 2.18 in series [5] (48 h of exposition) and 2.09 in series [5] (72 h of exposition). Further, the inhibition at 1 µM in series [7] (1 μM) worked out at 33.8 ± 2.64%; in series [8] (1 μM), 88.76 ± 0.81%. The molecule also yielded an inhibition at 2 µM in [7] (2 μM) of 54.9 ± 1.92%. The molecule also displayed an inhibition at 5 µM in series [7] (5 μM) of 96.88 ± 0.96%. In series [8] (0.5 μM), the inhibition at 0.5 µM amounted to 40.6 ± 5.62%. Besides, the “reduction of the migration of cells to the scratch area” value in series [9] is on record as 33–42%. In addition, the “overgrowth of the wound area (migration)” value in [10] was 30.01 ± 0.16%.

Take `C=C(C)CCC[C@]1(C)OC(=O)[C@]23CC=C4[C@@H](CC[C@H]5C(C)(C)[C@@H](O[C@@H]6OC[C@@H](O)[C@H](O)[C@H]6O[C@@H]6O[C@H](CO)[C@@H](O[C@@H]7O[C@H](COS(=O)(=O)O)[C@@H](O)[C@H](O[C@@H]8O[C@H](COS(=O)(=O)O)[C@@H](O)[C@H](OC)[C@H]8O)[C@H]7O)[C@H](O)[C@H]6O)CC[C@]45C)[C@]2(C)CC(=O)[C@@H]31` [psolusoside G (4), psolusoside G]: the half-maximal inhibitory concentration (IC50) in series [1] was determined as 2.7 ± 0.09 µM; in [3] (setting [11]) it was 11.4 ± 0.36 µM; in series [4] (setting [12]) it was 16 ± 1.17 µM; in [5] (setting [13]), 11 ± 0.36 µM. Moreover, in series [2], the IC50 at 24 h is more than 50 µM.

For the molecule `C=C(C)CCC[C@]1(C)OC(=O)[C@]23CC=C4[C@@H](CC[C@H]5C(C)(C)[C@@H](O[C@@H]6OC[C@@H](O[C@@H]7O[C@H](COS(=O)(=O)O)[C@@H](OS(=O)(=O)O)[C@H](O)[C@H]7O)[C@H](O)[C@H]6O[C@@H]6O[C@H](C)[C@@H](O[C@@H]7O[C@H](COS(=O)(=O)O)[C@@H](O)[C@H](O[C@@H]8O[C@H](COS(=O)(=O)O)[C@@H](O)[C@H](OC)[C@H]8O)[C@H]7O)[C@H](O)[C@H]6O)CC[C@]45C)[C@]2(C)CC(=O)[C@@H]31` [psolusoside P (8), psolusoside P], the IC50 in [6] was more than 50 µM; in series [3], more than 50 µM; in series [4], 37.1 ± 0.83 µM; in [5] it was 33.3 ± 1.31 µM.

On to `C=C(C)CCC[C@]1(C)OC(=O)[C@]23CCC4C(=CC[C@H]5C(C)(C)[C@@H](O[C@@H]6OC[C@@H](O[C@@H]7O[C@H](COS(=O)(=O)O)[C@@H](O)[C@H](O)[C@H]7O)[C@H](O)[C@H]6O[C@@H]6OC[C@@H](O[C@@H]7O[C@H](COS(=O)(=O)O)[C@@H](O)[C@H](O)[C@H]7O)[C@H](O)[C@H]6O)CC[C@]45C)[C@]2(C)C[C@H](OC(C)=O)[C@@H]31` (stereo partly drawn) [psolusoside I (5), psolusoside I], for which the half-inhibitory concentration (IC50) was 8.49 ± 0.49 µM in series [1], more than 50 µM in series [3] (setting [11]), 19.6 ± 0.61 µM in series [4] (setting [12]) and 33.1 ± 0.85 µM in series [5] (setting [13]). The molecule also gave an IC50 at 24 h in series [2] of more than 50 µM.

With `C=C(C)CCC[C@]1(C)OC(=O)[C@]23CC=C4[C@@H](CC[C@H]5C(C)(C)[C@@H](O[C@@H]6OC[C@@H](O[C@@H]7O[C@H](COS(=O)(=O)O)[C@@H](O)[C@H](O)[C@H]7O)[C@H](O)[C@H]6O[C@@H]6O[C@H](CO)[C@@H](O[C@@H]7O[C@H](COS(=O)(=O)O)[C@@H](O)[C@H](O[C@@H]8O[C@H](COS(=O)(=O)O)[C@@H](O)[C@H](OC)[C@H]8O)[C@H]7O)[C@H](O)[C@H]6O)CC[C@]45C)[C@]2(C)CC(=O)[C@@H]31` [psolusoside N (7), psolusoside N], the concentration for half-maximal inhibition (IC50) was more than 50 µM in [6], more than 50 µM in series [3], more than 50 µM in series [4] and 39.3 ± 2.89 µM in series [5].

For the molecule `C=C(C)CCC[C@]1(C)OC(=O)[C@]23CC[C@@H]4C(=CC[C@H]5C(C)(C)[C@@H](O[C@@H]6OC[C@@H](O[C@@H]7O[C@H](CO)[C@@H](O)[C@H](O)[C@H]7OS(=O)(=O)[O-])[C@H](O)[C@H]6O[C@@H]6O[C@H](CO)[C@@H](O[C@@H]7O[C@H](COS(=O)(=O)[O-])[C@@H](O)[C@H](O)[C@H]7O)[C@H](O)[C@H]6O)CC[C@]45C)[C@]2(C)CC(=O)[C@@H]31.[Na+].[Na+]` [peronioside A (1), 3β-O-{6-O-sodium-sulfate-β-D-glucopyranosyl-(1→4)-β-D-glucopyranosyl-(1→2)-[2-O-sodium-sulfate-β-D-glucopyranosyl-(1→4)]-β-D-xylopyranosyl}-16-oxoholosta-7,25-diene], in series [1], the “hemolytic activity (result in words)” value is “moderate hemolytic activity”. For the same molecule, the IC50 in series [1] was 30.8 ± 1.01 µM; in series [3] (setting [11]) it was more than 50 µM; in [4] (setting [12]), more than 50 µM; in [5] (setting [13]) it was more than 50 µM. Moreover, the 50% inhibitory concentration (IC50) at 24 h in [2] is more than 50 µM.

The term IC50 denotes the concentration at which inhibition is half-maximal. What is called inhibition is the share of the control response that was lost under treatment.
